# Like-named read-outs stand apart in the source and are kept apart here.
# Assays:
# rats = assay: Geller-Seifter conflict test; format: in vivo, rat
# Procedure: Anxiolytic activity of 11-piperazin-1-yldibenzo[b,f][1,4]thiazepine was tested in rats according to the Geller-Seifter conflict test. Efficacy results are presented in Table 1 and plasma levels in satellite exposure animals at 0.25 hours after administration are provided in Table 2.
# Subjects: 30 Male Long Evans rats were used. Subjects weighed 350-450 g at the time of testing, and were food restricted to 85% of free feeding weight by post session feeding with approximately 15 g of standard rat chow per day. All animals had free access to water except during experimental testing. Subjects were individually housed throughout the course of the experiment under a 12 hour light/dark cycle.
# Apparatus: Standard 2-lever operant chambers were used (Med Associates). The chambers were fitted with two retractable response levers and a stimulus lamp over each of the 2 levers. A pellet food dispenser delivered 45 mg food pellets, (Bio Serv) to a cup located inside of the chamber below and between the 2 response levers. A lamp at the top and back of the chamber served as houselights. […] All events in the chambers were controlled and monitored by a microprocessor. […]
# Several doses were tested on a given day in different subjects. […] The dependent variables recorded were the rate of responding in unpunished and punished components (total responses/total time under the component), the number of shocks delivered. […]
# Adrenergic α1A = biological target: T1, Adrenergic α1A (Rattus norvegicus, UniProt P43140); assay: Radioligand binding 203100 Adrenergic α1A
# T1 construct: 203100
# T1 sequence (P43140 1-466): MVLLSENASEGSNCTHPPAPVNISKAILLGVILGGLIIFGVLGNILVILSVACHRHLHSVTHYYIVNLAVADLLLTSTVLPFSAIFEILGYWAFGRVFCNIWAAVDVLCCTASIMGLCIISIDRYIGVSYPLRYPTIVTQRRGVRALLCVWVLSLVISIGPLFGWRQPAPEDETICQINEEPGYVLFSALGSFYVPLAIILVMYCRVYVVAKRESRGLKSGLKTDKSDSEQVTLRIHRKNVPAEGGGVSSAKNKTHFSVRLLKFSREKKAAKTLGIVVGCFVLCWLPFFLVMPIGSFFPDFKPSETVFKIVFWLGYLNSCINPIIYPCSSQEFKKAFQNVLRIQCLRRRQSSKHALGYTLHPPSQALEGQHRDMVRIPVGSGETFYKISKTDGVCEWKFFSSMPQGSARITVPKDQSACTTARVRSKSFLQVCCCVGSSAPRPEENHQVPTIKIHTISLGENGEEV
# Text: Receptor binding methods, (α-adrenergic subtype specific, are provided below.
# [1] = biological target: Adrenergic α2* Non-Selective; assay: Radioligand binding 203900 Adrenergic α2* Non-Selective; parameters: species or system rat
# Text: Receptor binding methods, α-adrenergic nonselective, are provided below.
# H1 receptor = H1 receptor (Homo sapiens, UniProt P35367); assay: H1 receptor binding
# H1 receptor, sequence (P35367 whole entry): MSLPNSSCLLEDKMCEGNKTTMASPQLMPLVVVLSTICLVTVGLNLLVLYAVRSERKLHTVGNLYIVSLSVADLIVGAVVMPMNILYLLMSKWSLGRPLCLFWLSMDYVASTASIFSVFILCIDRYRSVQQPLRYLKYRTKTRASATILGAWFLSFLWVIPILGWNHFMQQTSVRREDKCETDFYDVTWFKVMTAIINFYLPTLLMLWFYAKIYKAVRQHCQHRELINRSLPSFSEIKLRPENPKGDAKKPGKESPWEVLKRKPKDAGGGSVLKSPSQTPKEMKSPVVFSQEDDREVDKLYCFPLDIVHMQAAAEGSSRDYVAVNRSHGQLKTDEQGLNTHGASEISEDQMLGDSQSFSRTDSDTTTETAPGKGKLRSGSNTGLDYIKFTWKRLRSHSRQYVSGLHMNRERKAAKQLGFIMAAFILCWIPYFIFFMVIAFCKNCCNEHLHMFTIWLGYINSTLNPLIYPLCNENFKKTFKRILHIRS
# Procedure: The H1 receptor binding method was carried out in accordance with the method set out in De Backer M D et al. Biochem. Biophys. Res Commun. 197 (3); 1601, 1993.
# mice = assay: Tail suspension test; format: in vivo, mouse
# Procedure: Antidepressant activity of 11-piperazin-1-yldibenzo[b,f][1,4]thiazepine was assessed in mice according to the tail suspension test. As shown in the results below, 11-piperazin-1-yldibenzo[b,f][1,4]thiazepine has antidepressant activity in mice.
# In a first experiment, mice (n=10/group) were treated with vehicle, 2.0, 5.0, or 10.0 mg/kg of 11-piperazin-1-yldibenzo[b,f][1,4]thiazepine s.c. 15 minutes prior to the test session. Mice were suspended from their tails for 7 minutes. During the last 5 minutes of the test, the duration of immobility was recorded. In a second experiment, mice (n=10/group) were treated with vehicle, 30 mg/kg 11-piperazin-1-yldibenzo[b,f][1,4]thiazepine, or 30 mg/kg fluoxetine p.o. 60 minutes prior to the test session. Mice were suspended from their tails for 7 minutes. During the last 5 minutes of the test, the duration of immobility was recorded.
compound,measurement,setting,value
"c1ccc2c(c1)N=C(N1CCNCC1)c1ccccc1S2 [11-piperazin-1-yldibenzo[b,f][1,4]thiazepine]",rates of responding in the punished component,"rats; doses of 2, 5, and 10 mg/kg s.c.",Significant increases
same,Inactive dose,"rats; rats, 15 minute pre-treatment",1 mg/kg s.c.
same,IC50,Adrenergic α1A,268 ± 12 nM
same,n,Adrenergic α1A,1.03 ± 0.089
same,inhibition at 0.3 µM,Adrenergic α1A; 0.3 μM,51%
same,Ki,Adrenergic α1A; read-out: ki,108 ± 5 nM
same,Ki,"Adrenergic α1A; α1A, read-out: Affinity",108 nM
same,IC50,[1],1410 nM
same,Ki,[1],1290 nM
same,% INH.,[1]; 10 μM,73%
same,Ki,H1 receptor,1.15 nM
same,"reduction of immobility, fraction of that of the vehicle control group",mice; 10.0 mg/kg s.c.,more than ½
same,duration of immobility compared with controls,"mice; 10.0 mg/kg s.c., p<0.01",significantly reduced immobility
same,"reduction of immobility, fraction of that of the vehicle control group","mice; 30 mg/kg p.o., 60 minutes prior",more than ½
same,duration of immobility compared to the vehicle control group,"mice; 30 mg/kg p.o., 60 minutes prior, p<0.01",significantly reduced immobility
same,duration of immobility,"mice; all doses tested: 2.0, 5.0, 10.0 mg/kg s.c., 15 minutes prior",reduced immobility

# — US20090093460A1, “Compositions” (AstraZeneca AB, priority 2003, published 2009)
